According to patent US20210038587A1, “METHODS AND COMPOSITIONS FOR TREATING NON-ERK MAPK PATHWAY INHIBITOR-RESISTANT CANCERS” (BIOMED VALLEY DISCOVERIES, INC., priority 2013, published 2021):

Columns and labels:
HCT116 = assay: Reverse Phase Protein Analysis (RPPA); type: cell-based, human; details: % change from DMSO (matched cell line)
Experimental: (§1) Control wells were treated with DMSO at 0.1% (v/v) for 6 hours prior to cell lysate generation. Samples were then analyzed using reverse-phase protein microarray technology (Theranostics Health).
(§2) Cell lines with common alterations in BRAF and RAS were assayed: BRAF^V600E mutant lines A375, Colo205, and HT29; KRAS^G12C-mutant cell line MIAPACa-2; KRAS^G13D-mutant cell line HCT116; and AN3Ca with atypical HRAS^F82L mutation. Changes in protein levels are shown as a percentage change from dimethyl sulfoxide (DMSO)-treated parental control (FIG. 32A and Table 23).

A375 = assay: Reverse Phase Protein Analysis (RPPA); type: cell-based, human; details: % change from DMSO (matched cell line)
Experimental: as §1, §2

For Cn1nccc1Nc1nccc(-c2ccn([C@H](CO)c3ccc(Cl)c(F)c3)c(=O)c2)n1 [GDC-0994], the “Avg (4ebp1 T70)” value (HCT116) was 20.5%, the “Avg (Akt S473)” value (HCT116) was 4.69% and the “Avg (Akt)” value (HCT116) was −6.13%. The “Avg (Bad S136)” value (HCT116) was −1.24%, the “Avg (Bad S155)” value (HCT116) was −19.71% and the “Avg (Bak)” value (HCT116) was −1.74%. The “Avg (Bax)” value (HCT116) was −20.11%, the “Avg (Bcl 2)” value (HCT116) was −4.56% and the “Avg (Bcl2 S70)” value (HCT116) was −12.53%. For the same compound, the “Avg (Bcl 2 T56)” value (HCT116) was −11.96%, the “Avg (Bim)” value (HCT116) was 6.2% and the “Avg (CREB S133)” value (HCT116) was −8.56%. For the same compound, the “Avg (Caspase 3 CL D175)” value (HCT116) was −8.36%, the “Avg (Caspase 7 Cl D198)” value (HCT116) was −13.99% and the “Avg (Chk1)” value (HCT116) was 2.28%. For the same compound, the “Avg (Chk1 S345)” value (HCT116) was −18.77%, the “Avg (Cyclin D1)” value (HCT116) was −63.59% and the “Avg (ERK 1 2)” value (HCT116) was −1.9%. For the same compound, the “Avg (ERK 1 2 T202 Y204)” value (HCT116) was 526.64%, the “Avg (MAK1 S360)” value (HCT116) was −12.93% and the “Avg (Mcl1)” value (HCT116) was −4.77%. The “Avg (Raptor S792)” value (HCT116) was −15.77%, the “Avg (Raptor)” value (HCT116) was −6.2% and the “Avg (Rictor)” value (HCT116) was −10.98%. For the same compound, the “Avg (Stat1)” value (HCT116) was −6.32%, the “Avg (Stat3)” value (HCT116) was −0.25% and the “Avg (bad S112)” value (HCT116) was −12.36%. For the same compound, the “Avg (c Fos)” value (HCT116) was −10.36%, the “Avg (c Myc)” value (HCT116) was −12.03% and the “Avg (mTOR S2448)” value (HCT116) was −19.33%. For the same compound, the “Avg (mTOR S2481)” value (HCT116) was −18.34%, the “Avg (mTOR)” value (HCT116) was −4.85% and the “Avg (p70 S6 Kinase)” value (HCT116) was −9.9%. For the same compound, the “Avg (p90 RSK S380)” value (HCT116) was −22.25%, the “Avg(S6 Ribo Prot S235 236)” value (HCT116) was −94.82% and the “Avg(S6 Ribo Prot S240 244)” value (HCT116) was −95.1%. For the same compound, the “Avg(Tuberin TSC2 Y1571)” value (HCT116) was −9.4%, the “Avg(p70 S6 Kinase S371 S394)” value (HCT116) was −11.47% and the “Avg(p70 S6 Kinase T389 T412)” value (HCT116) was −24.73%. For the same compound, the “Avg (4ebp1 T70)” value (A375) was −29.47%, the “Avg (Akt S473)” value (A375) was 53.66% and the “Avg (Akt)” value (A375) was −20.7%. The “Avg (Bad S136)” value (A375) was −6.21%, the “Avg (Bad S155)” value (A375) was −13.31% and the “Avg (Bak)” value (A375) was 2.76%. For the same compound, the “Avg (Bax)” value (A375) was 3.97%, the “Avg (Bcl 2)” value (A375) was −3.13% and the “Avg (Bcl2 S70)” value (A375) was 6.3%. The “Avg (Bcl 2 T56)” value (A375) was −4.1%, the “Avg (Bim)” value (A375) was 9.8% and the “Avg (CREB S133)” value (A375) was −1.18%. For the same compound, the “Avg (Caspase 3 CL D175)” value (A375) was −16.74%, the “Avg (Caspase 7 Cl D198)” value (A375) was −5.53% and the “Avg (Chk1)” value (A375) was −7.72%. For the same compound, the “Avg (Chk1 S345)” value (A375) was −18.35%, the “Avg (Cyclin D1)” value (A375) was −81.65% and the “Avg (ERK 1 2)” value (A375) was 31.55%. For the same compound, the “Avg (ERK 1 2 T202 Y204)” value (A375) was 142.37%, the “Avg (MAK1 S360)” value (A375) was −5.21% and the “Avg (Mcl1)” value (A375) was −9.09%. For the same compound, the “Avg (Raptor S792)” value (A375) was −15.93%, the “Avg (Raptor)” value (A375) was −14.32% and the “Avg (Rictor)” value (A375) was −23.29%. For the same compound, the “Avg (Stat1)” value (A375) was −5.67%, the “Avg (Stat3)” value (A375) was 14.24% and the “Avg (bad S112)” value (A375) was −55.32%. For the same compound, the “Avg (c Fos)” value (A375) was −12.46%, the “Avg (c Myc)” value (A375) was −9.11% and the “Avg (mTOR S2448)” value (A375) was −23.61%. The “Avg (mTOR S2481)” value (A375) was −19.37%, the “Avg (mTOR)” value (A375) was −6.2% and the “Avg (p70 S6 Kinase)” value (A375) was −18.11%. The “Avg (p90 RSK S380)” value (A375) was −60.74%, the “Avg(S6 Ribo Prot S235 236)” value (A375) was −87.61% and the “Avg(S6 Ribo Prot S240 244)” value (A375) was −80.3%. The “Avg(Tuberin TSC2 Y1571)” value (A375) was −16.74%, the “Avg(p70 S6 Kinase S371 S394)” value (A375) was −17.34% and the “Avg(p70 S6 Kinase T389 T412)” value (A375) was −31.9%.
For Cc1cnc(Nc2ccc(F)cc2Cl)nc1-c1c[nH]c(C(=O)N[C@H](CO)c2cccc(Cl)c2)c1 [Vx-11e], the “Avg (4ebp1 T70)” value (HCT116) was 10.35%, the “Avg (Akt S473)” value (HCT116) was −16.94% and the “Avg (Akt)” value (HCT116) was −18.15%. The “Avg (Bad S136)” value (HCT116) was −5.39%, the “Avg (Bad S155)” value (HCT116) was −15.59% and the “Avg (Bak)” value (HCT116) was −3.07%. The “Avg (Bax)” value (HCT116) was −20.46%, the “Avg (Bcl 2)” value (HCT116) was −17.3% and the “Avg (Bcl2 S70)” value (HCT116) was −17.79%. The “Avg (Bcl 2 T56)” value (HCT116) was −25%, the “Avg (Bim)” value (HCT116) was 4.82% and the “Avg (CREB S133)” value (HCT116) was −9.17%. For the same compound, the “Avg (Caspase 3 CL D175)” value (HCT116) was −5.19%, the “Avg (Caspase 7 Cl D198)” value (HCT116) was −11.41% and the “Avg (Chk1)” value (HCT116) was −8.63%. For the same compound, the “Avg (Chk1 S345)” value (HCT116) was −16.49%, the “Avg (Cyclin D1)” value (HCT116) was −72.72% and the “Avg (ERK 1 2)” value (HCT116) was −24.01%. For the same compound, the “Avg (ERK 1 2 T202 Y204)” value (HCT116) was 873.33%, the “Avg (MAK1 S360)” value (HCT116) was −13.73% and the “Avg (Mcl1)” value (HCT116) was −7.79%. For the same compound, the “Avg (Raptor S792)” value (HCT116) was −11.21%, the “Avg (Raptor)” value (HCT116) was −4.32% and the “Avg (Rictor)” value (HCT116) was 1.78%. The “Avg (Stat1)” value (HCT116) was −14.06%, the “Avg (Stat3)” value (HCT116) was −7.76% and the “Avg (bad S112)” value (HCT116) was −23.88%. The “Avg (c Fos)” value (HCT116) was −13.89%, the “Avg (c Myc)” value (HCT116) was −18.56% and the “Avg (mTOR S2448)” value (HCT116) was −10.12%. For the same compound, the “Avg (mTOR S2481)” value (HCT116) was −17.82%, the “Avg (mTOR)” value (HCT116) was −0.59% and the “Avg (p70 S6 Kinase)” value (HCT116) was −4.45%. The “Avg (p90 RSK S380)” value (HCT116) was −33.05%, the “Avg(S6 Ribo Prot S235 236)” value (HCT116) was −90.03% and the “Avg(S6 Ribo Prot S240 244)” value (HCT116) was −86.06%. The “Avg(Tuberin TSC2 Y1571)” value (HCT116) was −16.51%, the “Avg(p70 S6 Kinase S371 S394)” value (HCT116) was −9.89% and the “Avg(p70 S6 Kinase T389 T412)” value (HCT116) was −20.99%. The “Avg (4ebp1 T70)” value (A375) was 23.33%, the “Avg (Akt S473)” value (A375) was 93.85% and the “Avg (Akt)” value (A375) was −30.34%. The “Avg (Bad S136)” value (A375) was 5.06%, the “Avg (Bad S155)” value (A375) was −6.3% and the “Avg (Bak)” value (A375) was 0.65%. For the same compound, the “Avg (Bax)” value (A375) was −5.05%, the “Avg (Bcl 2)” value (A375) was −9.93% and the “Avg (Bcl2 S70)” value (A375) was −4.02%. The “Avg (Bcl 2 T56)” value (A375) was −7.53%, the “Avg (Bim)” value (A375) was 12.32% and the “Avg (CREB S133)” value (A375) was −15.8%. The “Avg (Caspase 3 CL D175)” value (A375) was −9.27%, the “Avg (Caspase 7 Cl D198)” value (A375) was −7.62% and the “Avg (Chk1)” value (A375) was −0.86%. The “Avg (Chk1 S345)” value (A375) was 0.56%, the “Avg (Cyclin D1)” value (A375) was −85.46% and the “Avg (ERK 1 2)” value (A375) was −5.39%. The “Avg (ERK 1 2 T202 Y204)” value (A375) was 128.93%, the “Avg (MAK1 S360)” value (A375) was −7.63% and the “Avg (Mcl1)” value (A375) was 1.6%. The “Avg (Raptor S792)” value (A375) was −0.86%, the “Avg (Raptor)” value (A375) was −12.7% and the “Avg (Rictor)” value (A375) was −8.16%. The “Avg (Stat1)” value (A375) was 0.23%, the “Avg (Stat3)” value (A375) was 1.71% and the “Avg (bad S112)” value (A375) was −69.29%. The “Avg (c Fos)” value (A375) was −13.65%, the “Avg (c Myc)” value (A375) was −0.97% and the “Avg (mTOR S2448)” value (A375) was −21.66%. For the same compound, the “Avg (mTOR S2481)” value (A375) was −2.9%, the “Avg (mTOR)” value (A375) was −3.31% and the “Avg (p70 S6 Kinase)” value (A375) was −6.42%. For the same compound, the “Avg (p90 RSK S380)” value (A375) was −65.25%, the “Avg(Tuberin TSC2 Y1571)” value (A375) was −3.55% and the “Avg(p70 S6 Kinase S371 S394)” value (A375) was −17.32%. The “Avg(p70 S6 Kinase T389 T412)” value (A375) was −25.54%.
